Measurements from patent publication US12441730B2, “PRMT5 inhibitors” (Merck Sharp & Dohme LLC, priority 2019, dated 2025).
Read-outs that look alike come from different tables or passages of the source.

How the values were obtained:
[1] = molecular target: T1, Full-length (FL)-PRMT5-MEP50 enzyme complex (Homo sapiens, UniProt O14744); test: PRMT5-MEP50 Enzyme Methylation Assay (Version A); assay type: biochemical
T1 construct: Full-length (FL)-PRMT5-MEP50 enzyme complex (recombinant proteins from baculovirus-transfected Sf21 cells: FL-PRMT5; MW=73837 kDa and FL-MEP50; MW=38614); made in house; host or cells: baculovirus-transfected Sf21 cells
Method: PRMT5-MEP50 Enzyme Methylation Assay (Version A)
PRMT5-MEP50 biochemical assay is a direct measurement of the methylation activity of the enzyme complex on a short peptide substrate derived from the N-terminus of H4 histone. Methylation experiment was performed with recombinant PRMT5-MEP50 protein complex. The assessment of inhibitory effect of small molecules was measured by the effectiveness of the compounds to inhibit this reaction (EC50).
In this assay, the potency (EC50) of each compound was determined from a twenty-point (1:2 serial dilution; top compound concentration of 100000 nM) titration curve using the following outlined procedure. To each well of a white ProxiPlus 384 well-plate, 100 nL of compound (1% DMSO in final assay volume of 10 μL) was dispensed, followed by the addition of 8 μL of 1× assay buffer (50 mM Bicine pH 8.0, 1 mM DTT, 0.004% Tween20, 0.01% BSA) containing 1.25 nM of Full-length (FL)-PRMT5-MEP50 enzyme complex (recombinant proteins from baculovirus-transfected Sf21 cells: FL-PRMT5; MW=[…] and FL-MEP50; MW=38614) and 1 μL of 150 μM S-(5′-Adenosyl)-L-Methionine Chloride (SAM). A plate were sealed and placed in a 37° C. humidified chamber for a 60 minutes pre-incubation with compound. Subsequently, each reaction was initiated by the addition of 1 μL 1× assay buffer containing 750 nM biotinylated H4R3(Me1) peptide. The final reaction in each well of 10 μL consists of 1.0 nM PRMT5-MEP50, 75 nM biotinylated-peptide, and 15 μM SAM. Methylation reactions were allowed to proceed for 150 minutes in a sealed plate at 37° C. Reactions were immediately quenched by the addition of 1 μL of 5% formic acid. A plate was then frozen and shipped to SAMDI™ Tech Inc. to determine the percent conversion from H4R3(Me1) to H4R3(Me2). Dose-response curves were generated by plotting percent effect (% product conversion; Y-axis) vs. Log 10 compound concentrations (X-axis). EC50 values were determined by non-linear regression according to models for either sigmoidal (4 parameters) or biphasic (7 parameters) dose-response curves.

[2] = system: symmetric dimethylation of arginine (SDMA) of PRMT5 substrates in MCF-7 cells; test: PRMT5 Cell Target Engagement (TE) Assay; assay type: cell-based; settings: 3 days treatment, SDMA high content imaging
Text: PRMT5 Cell Target Engagement (TE) Assay
The PRMT5 TE assay is a biomarker assay for identifying compounds that inhibit symmetric dimethylation of arginine (SDMA) of PRMT5 substrates. The following substrates have been reported for PRMT5: histone H2A and H4 R3, Histone H3 R2, Histone H3 R8, spliceosome Sm proteins, ribosomal protein RPS10, p53, FEN1, nucleoplasmin, nucleolin, EGFR and EBNA. The assay focuses on detecting symmetrically dimethylated nuclear proteins using high content imaging technology. Detection of the expression of symmetrically dimethylated nuclear proteins is through a mixture of primary rabbit monoclonal antibodies to SDMA (CST 13222), which in turn recognized by an Alexafluor 488 dye-conjugated anti-rabbit IgG secondary antibody. The IN Cell Analyzer 2200 or Opera-Phenix measures nuclear Alexafluor 488 fluorescent dye intensity that is directly related to the level of expression of symmetrically dimethylated nuclear proteins at the single cell level. Nuclear AF488 dye intensities are compared to the mean value for DMSO treated cells (MIN) to report percent of inhibition for each compound-treated well.
In this assay, the cell potency (EC50) of each compound was determined from a ten point (1:3 serial dilution; top compound concentration of 10000 nM) titration curve using the following outlined procedure. Each well of a BD falcon collagen coated black/clear bottom 384-well plate was seeded with 4000 MCF-7 cells in 30 μl media and allowed to attach for 5 h. Media is ATCC-formulated Eagle's Minimum Essential Medium, Catalog No. 30-2003. To make the complete growth medium, the following components were added to the base medium: 0.01 mg/mL human recombinant insulin; fetal bovine serum to a final concentration of 10%. Additional 30 μl of media containing 2× compounds were added to each well. Cells were treated for 3 days in 37° C. CO2 incubator. On day 3, cells were fixed with Cytofix, permeabilized with 0.4% Triton-X-100/Cytofix, and washed with D-PBS without Ca/Mg. Cells were blocked with Licor Odessey blocking reagent for 1 h at room temperature, followed by incubation with anti-SDMA (1:1000) antibody at 4° C. overnight. 1° antibody was removed, followed by three washings with DPBS without Ca/Mg and 0.05% Tween20. Hoechst (5 μg/mL), Cell Mask deep stain (1:2000) and Alexa488-conjugated goat anti-rabbit IgG (2 μg/mL) was added for 1 h at room temperature. A final washing step (three washes) was performed before sealing plate for imaging on In Cell Analyzer 2200 or Opera-Phenix. Images from analyzer were uploaded to Columbus (at WP or BOS) for image analysis. IC50 values were determined by 4 parameters robust fit of percent fluorescence units vs. (Log10) compound concentrations.

[3] = single EC50 = 4 parameter single site sigmoidal fit, EC50 1 = first value of 7 parameter biphasic fit, read-out: Enzyme Methylation Assay Version A (EC50 or EC50 1)
[4] = second value of 7 parameter biphasic fit, read-out: Enzyme Methylation Assay Version A (EC50 2)

T1 sequence (O14744 whole entry): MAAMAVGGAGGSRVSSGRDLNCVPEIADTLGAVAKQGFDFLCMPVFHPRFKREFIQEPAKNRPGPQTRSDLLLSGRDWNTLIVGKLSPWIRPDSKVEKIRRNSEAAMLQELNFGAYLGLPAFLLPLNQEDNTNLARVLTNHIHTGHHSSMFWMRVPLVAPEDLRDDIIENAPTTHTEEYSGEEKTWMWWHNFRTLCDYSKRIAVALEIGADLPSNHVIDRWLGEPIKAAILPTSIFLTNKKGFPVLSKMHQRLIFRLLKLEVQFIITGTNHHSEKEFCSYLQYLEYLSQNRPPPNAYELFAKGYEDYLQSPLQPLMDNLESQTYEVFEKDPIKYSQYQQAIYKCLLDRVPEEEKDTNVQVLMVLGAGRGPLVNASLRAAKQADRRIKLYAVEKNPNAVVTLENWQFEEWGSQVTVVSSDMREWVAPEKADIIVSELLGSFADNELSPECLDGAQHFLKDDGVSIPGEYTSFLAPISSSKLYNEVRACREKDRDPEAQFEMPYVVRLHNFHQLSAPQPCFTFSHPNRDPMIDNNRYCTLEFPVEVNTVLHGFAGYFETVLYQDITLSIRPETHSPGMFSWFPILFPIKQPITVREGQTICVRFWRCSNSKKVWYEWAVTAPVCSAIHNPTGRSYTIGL
T1 sequence (Q9BQA1 whole entry partner): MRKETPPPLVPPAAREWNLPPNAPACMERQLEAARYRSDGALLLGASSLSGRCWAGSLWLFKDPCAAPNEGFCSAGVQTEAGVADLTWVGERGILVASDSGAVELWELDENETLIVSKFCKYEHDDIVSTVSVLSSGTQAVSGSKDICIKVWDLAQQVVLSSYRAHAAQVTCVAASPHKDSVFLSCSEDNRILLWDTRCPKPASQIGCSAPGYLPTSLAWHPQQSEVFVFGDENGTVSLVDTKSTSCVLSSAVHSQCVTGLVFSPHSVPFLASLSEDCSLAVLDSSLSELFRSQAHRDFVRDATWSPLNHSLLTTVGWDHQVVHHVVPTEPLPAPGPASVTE

Structure (SMILES) | EC50 [1, 3] [nM] | EC50 [2] [nM] | EC50 [1, 4] [nM] | EC50 ([2]; Homo sapiens, MCF7, 72 h) [nM]
CC1(C)CC1(C#N)c1cnc2nc(C(=O)N3CC[C@]4(Cc5ccccc5CN4)[C@H](O)C3)cn2c1 (single isomer, unassigned) [Example 147] | 0.409 | 2.28 |  | 
CC1(C)CC1(C#N)c1cnc2nc(C(=O)N3CC[C@]4(Cc5ccccc5CN4)[C@H](O)C3)cn2c1 (single isomer, unassigned) [Example 148] | 1.11 | 121 | 1910 | 
COC[C@H]1C[C@@H](C(F)(F)F)Cn2cc(C(=O)N3CC[C@]4(Cc5ccccc5CN4)[C@H](O)C3)nc21 (single isomer, unassigned) [Example 155] | 5.26 |  | 3980 | 122
COC[C@@H]1C[C@H](C(F)(F)F)Cn2cc(C(=O)N3CC[C@]4(Cc5ccccc5CN4)[C@H](O)C3)nc21 (single isomer, unassigned) [Example 156] | 42.7 |  | 15800 | 642
COCC1CC(C)Cn2cc(C(=O)N3CC[C@]4(Cc5ccccc5CN4)[C@H](O)C3)nc21 (single isomer, unassigned) [Example 157] | 8.94 | 275 | 6460 | 
COCC1CC(C)Cn2cc(C(=O)N3CC[C@]4(Cc5ccccc5CN4)[C@H](O)C3)nc21 (single isomer, unassigned) [Example 158] | 71.6 | 1700 | 29800 | 
COCC1CC(C)Cn2cc(C(=O)N3CC[C@]4(Cc5ccccc5CN4)[C@H](O)C3)nc21 (single isomer, unassigned) [Example 159] | 61.7 | 527 | 22400 | 
O=C(c1cn2c(n1)C(C1CCOC1)CC(C(F)(F)F)C2)N1CC[C@]2(Cc3ccccc3CN2)[C@H](O)C1 (single isomer, unassigned) [Example 160, ((3R,3′R)-3′-hydroxy-1,4-dihydro-2H-spiro[isoquinoline-3,4′-piperidin]-1′-yl)((6S,8S or 6R,8R)-8-((S or R)-tetrahydrofuran-3-yl)-6-(trifluoromethyl)-5,6,7,8-tetrahydroimidazo[1,2-a]pyridin-2-yl)methanone] | 9.52 | 289 | 9480 | 
O=C(c1cn2c(n1)C(C1CCOC1)CC(C(F)(F)F)C2)N1CC[C@]2(Cc3ccccc3CN2)[C@H](O)C1 (single isomer, unassigned) [Example 161, ((3R,3′R)-3′-hydroxy-1,4-dihydro-2H-spiro[isoquinoline-3,4′-piperidin]-1′-yl)((6S,8S or 6R,8R)-8-((S or R)-tetrahydrofuran-3-yl)-6-(trifluoromethyl)-5,6,7,8-tetrahydroimidazo[1,2-a]pyridin-2-yl)methanone] | 5.9 | 374 | 9120 | 
O=C(c1cn2c(n1)C(C1CCOC1)CC(C(F)(F)F)C2)N1CC[C@]2(Cc3ccccc3CN2)[C@H](O)C1 (single isomer, unassigned) [Example 162, ((3R,3′R)-3′-hydroxy-1,4-dihydro-2H-spiro[isoquinoline-3,4′-piperidin]-1′-yl)((6S,8S or 6R,8R)-8-((S or R)-tetrahydrofuran-3-yl)-6-(trifluoromethyl)-5,6,7,8-tetrahydroimidazo[1,2-a]pyridin-2-yl)methanone] | 260 | 7520 | 93300 | 
O=C(c1cn2c(n1)C(C1CCOC1)CC(C(F)(F)F)C2)N1CC[C@]2(Cc3ccccc3CN2)[C@H](O)C1 (single isomer, unassigned) [Example 163, ((3R,3′R)-3′-hydroxy-1,4-dihydro-2H-spiro[isoquinoline-3,4′-piperidin]-1′-yl)((6S,8S or 6R,8R)-8-((S or R)-tetrahydrofuran-3-yl)-6-(trifluoromethyl)-5,6,7,8-tetrahydroimidazo[1,2-a]pyridin-2-yl)methanone] | 96.6 | 1590 | 36700 | 
N#CCCC1CC(C(F)(F)F)Cn2cc(C(=O)N3CC[C@]4(Cc5ccccc5CN4)[C@H](O)C3)nc21 (single isomer, unassigned) [Example 164, 3-((6R,8S or 6S,8R)-2-((3R,3′R)-3′-hydroxy-1,4-dihydro-2H-spiro[isoquinoline-3,4′-piperidine]-1′-carbonyl)-6-(trifluoromethyl)-5,6,7,8-tetrahydroimidazo[1,2-a]pyridin-8-yl)propanenitrile] | 4.83 | 205 | 4620 | 
N#CCCC1CC(C(F)(F)F)Cn2cc(C(=O)N3CC[C@]4(Cc5ccccc5CN4)[C@H](O)C3)nc21 (single isomer, unassigned) [Example 165, 3-((6R,8S or 6S,8R)-2-((3R,3′R)-3′-hydroxy-1,4-dihydro-2H-spiro[isoquinoline-3,4′-piperidine]-1′-carbonyl)-6-(trifluoromethyl)-5,6,7,8-tetrahydroimidazo[1,2-a]pyridin-8-yl)propanenitrile] | 82.2 | 841 | 26600 | 
CC1CC(C(F)(F)F)Cn2cc(C(=O)N3CC[C@]4(Cc5ccccc5CN4)[C@H](O)C3)nc21 (single isomer, unassigned) [Example 166, ((3R,3′R)-3′-hydroxy-1,4-dihydro-2H-spiro[isoquinoline-3,4′-piperidin]-1′-yl)((6R,8R or 6S,8S)-8-methyl-6-(trifluoromethyl)-5,6,7,8-tetrahydroimidazo[1,2-a]pyridin-2-yl)methanone] | 3.64 | 33.7 | 1640 | 
CC1CC(C(F)(F)F)Cn2cc(C(=O)N3CC[C@]4(Cc5ccccc5CN4)[C@H](O)C3)nc21 (single isomer, unassigned) [Example 167, ((3R,3′R)-3′-hydroxy-1,4-dihydro-2H-spiro[isoquinoline-3,4′-piperidin]-1′-yl)((6R,8R or 6S,8S)-8-methyl-6-(trifluoromethyl)-5,6,7,8-tetrahydroimidazo[1,2-a]pyridin-2-yl)methanone] | 9.55 | 194 | 3630 | 
COC(C)c1cc(Br)cn2cc(C(=O)N3CC[C@]4(Cc5cc(Cl)ccc5CN4)[C@H](O)C3)nc12 (single isomer, unassigned) [Example 225] | 2.1 |  | 398 | 22.6
COC(C)c1cc(Br)cn2cc(C(=O)N3CC[C@]4(Cc5ccc(Cl)cc5CN4)[C@H](O)C3)nc12 (single isomer, unassigned) [Example 226] | 1.4 |  |  | 5.04
